Data from ChEMBL document CHEMBL1201862, “PubChem BioAssay data set” (2004).
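These data come from cells grown in 96-well plates and exposed to compound for 48 hours at five concentrations. GI50 = concentration required for 50% inhibition of growth.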 The source made the active and inactive calls. Rule as the data show it: active = GI50 up to about 1.1 µM and inactive = higher.

What was measured:
Assay in all cases: NCI anticancer screen, dose series, 48 h
[1] = system: Malme-3M
[2] = system: M19-MEL
[3] = system: UACC-257
[4] = system: SN12C
[5] = system: U-251
[6] = system: OVCAR-5
[7] = system: NCI-H226
[8] = system: CAKI-1
[9] = system: M14
[10] = system: NCI-H23
[11] = system: LXFL 529
[12] = system: K562
[13] = system: SF-539
[14] = system: UACC-62
[15] = system: UO-31
[16] = system: SNB-19
[17] = system: HCT-15
[18] = system: OVCAR-3
[19] = system: IGROV-1
[20] = system: SF-268
[21] = system: 786-0
[22] = system: RXF 393
[23] = system: DMS-114
[24] = system: SW-620
[25] = system: SK-MEL-28
[26] = system: TK-10
[27] = system: HCT-116
[28] = system: HT-29
[29] = system: HOP-92
[30] = system: OVCAR-4
[31] = system: KM12
[32] = system: EKVX
[33] = system: CCRF-CEM
[34] = system: HOP-18
[35] = system: HOP-62
[36] = system: DMS-273
[37] = system: KM-20L2
[38] = system: ACHN
[39] = system: SNB-75
[40] = system: SK-OV-3
[41] = system: NCI-H460
[42] = system: COLO 205
[43] = system: RXF 631
[44] = system: XF498
[45] = system: RPMI-8226
[46] = system: A498
[47] = system: NCI-H522
[48] = system: LOX IMVI
[49] = system: OVCAR-8
[50] = system: MOLT-4
[51] = system: DLD-1
[52] = system: SK-MEL-2
[53] = system: A549
[54] = system: SK-MEL-5
[55] = system: HCC 2998
[56] = system: SR
[57] = system: SF-295
[58] = system: SNB-78
[59] = system: HL-60

Structure (SMILES): CC(=O)c1cccc(NC(=O)C(=O)C(C(=O)NN)c2ccccc2)c1 (configuration not stated)
- GI50 [1]: > 100 µM (inactive)
- GI50 [2]: > 100 µM (inactive)
- GI50 [3]: > 100 µM (inactive)
- GI50 [4]: > 100 µM (inactive)
- GI50 [5]: > 100 µM (inactive)
- GI50 [6]: > 100 µM (inactive)
- GI50 [7]: > 100 µM (inactive)
- GI50 [8]: > 100 µM (inactive)
- GI50 [9]: > 100 µM (inactive)
- GI50 [10]: > 100 µM (inactive)
- GI50 [11]: > 100 µM (inactive)
- GI50 [12]: > 100 µM (inactive)
- GI50 [13]: > 100 µM (inactive)
- GI50 [14]: > 100 µM (inactive)
- GI50 [15]: > 100 µM (inactive)
- GI50 [16]: > 100 µM (inactive)
- GI50 [17]: > 100 µM
- GI50 [18]: > 100 µM (inactive)
- GI50 [19]: > 100 µM (inactive)
- GI50 [20]: > 100 µM (inactive)
- GI50 [21]: > 100 µM (inactive)
- GI50 [22]: > 100 µM (inactive)
- GI50 [23]: > 100 µM (inactive)
- GI50 [24]: > 100 µM (inactive)
- GI50 [25]: > 100 µM (inactive)
- GI50 [26]: > 100 µM (inactive)
- GI50 [27]: > 100 µM (inactive)
- GI50 [28]: > 100 µM (inactive)
- GI50 [29]: > 100 µM (inactive)
- GI50 [30]: > 100 µM (inactive)
- GI50 [31]: > 100 µM (inactive)
- GI50 [32]: > 100 µM (inactive)
- GI50 [33]: > 100 µM (inactive)
- GI50 [34]: 16.5 µM (inactive)
- GI50 [35]: > 100 µM (inactive)
- GI50 [36]: > 100 µM (inactive)
- GI50 [37]: > 100 µM (inactive)
- GI50 [38]: > 100 µM (inactive)
- GI50 [39]: > 100 µM (inactive)
- GI50 [40]: > 100 µM (inactive)
- GI50 [41]: > 100 µM (inactive)
- GI50 [42]: > 100 µM (inactive)
- GI50 [43]: > 100 µM (inactive)
- GI50 [44]: > 100 µM (inactive)
- GI50 [45]: > 100 µM (inactive)
- GI50 [46]: > 100 µM (inactive)
- GI50 [47]: > 100 µM (inactive)
- GI50 [48]: > 100 µM (inactive)
- GI50 [49]: > 100 µM (inactive)
- GI50 [50]: > 100 µM (inactive)
- GI50 [51]: > 100 µM (inactive)
- GI50 [52]: > 100 µM (inactive)
- GI50 [53]: > 100 µM (inactive)
- GI50 [54]: > 100 µM (inactive)
- GI50 [55]: 51.6 µM (inactive)

Structure (SMILES): O=c1[nH]c(=O)n(C2OC(COP(=O)(O)OP(=O)(O)OC3OC(CO)C(O)C(O)C3O)C(O)C2O)cc1F (configuration not stated)
- GI50 [1]: 0.21 µM (active)
- GI50 [2]: 0.191 µM (active)
- GI50 [3]: 0.615 µM (active)
- GI50 [56]: 0.0418 µM (active)
- GI50 [4]: 0.0809 µM (active)
- GI50 [5]: 0.0577 µM (active)
- GI50 [6]: 0.908 µM (active)
- GI50 [7]: 0.148 µM (active)
- GI50 [8]: 0.109 µM (active)
- GI50 [9]: 0.234 µM (active)
- GI50 [10]: 0.147 µM (active)
- GI50 [11]: 0.151 µM (active)
- GI50 [12]: 0.0302 µM (active)
- GI50 [57]: 0.127 µM (active)
- GI50 [13]: 0.0552 µM (active)
- GI50 [14]: 0.307 µM (active)
- GI50 [15]: 0.04 µM (active)
- GI50 [16]: 0.156 µM (active)
- GI50 [58]: 0.366 µM (active)
- GI50 [59]: 0.065 µM (active)
- GI50 [17]: 0.0384 µM
- GI50 [18]: 0.552 µM (active)
- GI50 [19]: 0.125 µM (active)
- GI50 [20]: 0.0475 µM (active)
- GI50 [21]: 0.0526 µM (active)
- GI50 [22]: 0.0522 µM (active)
- GI50 [23]: 1.13 µM (inactive)
- GI50 [24]: 0.0504 µM (active)
- GI50 [25]: 0.229 µM (active)
- GI50 [26]: 1.67 µM (inactive)
- GI50 [27]: < 0.0129 µM (active)
- GI50 [28]: 0.0582 µM (active)
- GI50 [29]: 1.12 µM (active)
- GI50 [30]: 1.26 µM (inactive)
- GI50 [31]: 0.0317 µM (active)
- GI50 [32]: 1.12 µM (inactive)
- GI50 [33]: 0.0929 µM (active)
- GI50 [34]: 3.22 µM (inactive)
- GI50 [35]: 0.302 µM (active)
- GI50 [37]: 0.101 µM (active)
- GI50 [38]: 0.0217 µM (active)
- GI50 [39]: 1.64 µM (inactive)
- GI50 [40]: 0.975 µM (active)
- GI50 [41]: < 0.014 µM (active)
- GI50 [42]: 0.0984 µM (active)
- GI50 [43]: 0.0716 µM (active)
- GI50 [44]: 0.277 µM (active)
- GI50 [45]: < 0.01 µM (active)
- GI50 [46]: 0.239 µM (active)
- GI50 [47]: 0.327 µM (active)
- GI50 [48]: 0.0314 µM (active)
- GI50 [49]: 0.0966 µM (active)
- GI50 [50]: 0.0522 µM (active)
- GI50 [51]: < 0.0119 µM (active)
- GI50 [52]: 0.486 µM (active)
- GI50 [53]: 0.0149 µM (active)
- GI50 [54]: 0.407 µM (active)
- GI50 [55]: 0.116 µM (active)

Structure (SMILES): Cc1cc(C)cc(-n2c3nc(=O)n(C)c(=O)c-3nc3ccccc32)c1
- GI50 [1]: 16 µM (inactive)
- GI50 [2]: 6.07 µM (inactive)
- GI50 [3]: 15.3 µM (inactive)
- GI50 [4]: 26.8 µM (inactive)
- GI50 [5]: 21.8 µM (inactive)
- GI50 [6]: 39.5 µM (inactive)
- GI50 [7]: 34.7 µM (inactive)
- GI50 [8]: 37.8 µM (inactive)
- GI50 [9]: 27 µM (inactive)
- GI50 [10]: 15.7 µM (inactive)
- GI50 [11]: 48.4 µM (inactive)
- GI50 [12]: 22.1 µM (inactive)
- GI50 [57]: 36 µM (inactive)
- GI50 [13]: 21.4 µM (inactive)
- GI50 [14]: 16.7 µM (inactive)
- GI50 [15]: 64.1 µM (inactive)
- GI50 [16]: 22.1 µM (inactive)
- GI50 [58]: 35.6 µM (inactive)
- GI50 [17]: 21 µM
- GI50 [18]: 3.34 µM (inactive)
- GI50 [19]: 36.1 µM (inactive)
- GI50 [20]: 65.6 µM (inactive)
- GI50 [21]: 81.7 µM (inactive)
- GI50 [22]: > 100 µM (inactive)
- GI50 [23]: 13.4 µM (inactive)
- GI50 [24]: 17 µM (inactive)
- GI50 [26]: 42.3 µM (inactive)
- GI50 [27]: 23.9 µM (inactive)
- GI50 [28]: 10.3 µM (inactive)
- GI50 [30]: 18.5 µM (inactive)
- GI50 [31]: 27.1 µM (inactive)
- GI50 [32]: 17.7 µM (inactive)
- GI50 [33]: 23.2 µM (inactive)
- GI50 [34]: > 100 µM (inactive)
- GI50 [35]: 45.4 µM (inactive)
- GI50 [36]: 16.7 µM (inactive)
- GI50 [37]: 19.4 µM (inactive)
- GI50 [38]: 27.4 µM (inactive)
- GI50 [39]: 34.9 µM (inactive)
- GI50 [40]: > 100 µM (inactive)
- GI50 [41]: 23.9 µM (inactive)
- GI50 [42]: 7.29 µM (inactive)
- GI50 [43]: 22.5 µM (inactive)
- GI50 [44]: 36.3 µM (inactive)
- GI50 [45]: 29.7 µM (inactive)
- GI50 [46]: > 100 µM (inactive)
- GI50 [47]: 17.5 µM (inactive)
- GI50 [48]: 29.3 µM (inactive)
- GI50 [49]: 27.6 µM (inactive)
- GI50 [50]: 23 µM (inactive)
- GI50 [52]: 22.9 µM (inactive)
- GI50 [53]: 26.7 µM (inactive)
- GI50 [54]: 15.8 µM (inactive)
- GI50 [55]: 18.1 µM (inactive)
